Measured values from the supplement of paper PMC13380429.

Assays:
Details in all cases: 72 h
HepG2 [1] = assay: drug sensitivity score (DSS) for viability; higher = more toxic; extreme values may be limits of the assay
Calu-3 [2] = assay: as above
Caco-2 [3] = assay: as above
Vero E6 [4] = assay: as above
U2OS [5] = assay: as above
HepG2 [6] = assay: cell viability relative to DMSO; higher = less toxic
Calu-3 [7] = assay: as above
Caco-2 [8] = assay: as above
Vero E6 [9] = assay: as above
U2OS [10] = assay: as above
HepG2 [11] = assay: relative viability EC50 (midpoint between 100% and the lowest measured viability); higher = less toxic
Caco-2 [12] = assay: as above
Vero E6 [13] = assay: as above
U2OS [14] = assay: as above

SMILES	drug sensitivity score (HepG2 [1])	drug sensitivity score (Calu-3 [2])	drug sensitivity score (Caco-2 [3])	drug sensitivity score (Vero E6 [4])	drug sensitivity score (U2OS [5])	cell viability (HepG2 [6]; 1 nM) [%]	cell viability (HepG2 [6]; 10 nM) [%]	cell viability (HepG2 [6]; 100 nM) [%]	cell viability (HepG2 [6]; 1000 nM) [%]	cell viability (HepG2 [6]; 10000 nM) [%]	cell viability (Calu-3 [7]; 1 nM) [%]	cell viability (Calu-3 [7]; 10 nM) [%]	cell viability (Calu-3 [7]; 100 nM) [%]	cell viability (Calu-3 [7]; 1000 nM) [%]	cell viability (Calu-3 [7]; 10000 nM) [%]	cell viability (Caco-2 [8]; 1 nM) [%]	cell viability (Caco-2 [8]; 10 nM) [%]	cell viability (Caco-2 [8]; 100 nM) [%]	cell viability (Caco-2 [8]; 1000 nM) [%]	cell viability (Caco-2 [8]; 10000 nM) [%]	cell viability (Vero E6 [9]; 1 nM) [%]	cell viability (Vero E6 [9]; 10 nM) [%]	cell viability (Vero E6 [9]; 100 nM) [%]	cell viability (Vero E6 [9]; 1000 nM) [%]	cell viability (Vero E6 [9]; 10000 nM) [%]	cell viability (U2OS [10]; 1 nM) [%]	cell viability (U2OS [10]; 10 nM) [%]	cell viability (U2OS [10]; 100 nM) [%]	cell viability (U2OS [10]; 1000 nM) [%]	cell viability (U2OS [10]; 10000 nM) [%]	relative viability EC50 (HepG2 [11]) [µM]	relative viability EC50 (Caco-2 [12]) [µM]	relative viability EC50 (Vero E6 [13]) [µM]	relative viability EC50 (U2OS [14]) [µM]
c1ccc(CCCCN2CCC(c3ccccc3)CC2)cc1 [4-PPBP]	1.6	2.2	1.4	0	0	99.8	103	101	93.8	77.9	93	111	96.7	95.1	69.3	94.7	94.9	89.8	86.1	84.4	100	102	102	99.7	90	90.7	91.2	96.1	94.7	84.6	> 10	> 10	> 10	> 10
O=C(Nc1ccc([N+](=O)[O-])cc1O)Nc1ccccc1Br	5.1	1.6	6.4	5.9	5.6	89.9	101	89.7	92	32.5	102	98.2	88.4	108	59.3	98.6	103	102	77	40.5	101	98.3	94.5	85.7	34.8	98.3	99.6	96.9	87	36.6	2.19	1.2	1.66	1.72
COc1c(O)cc2c(c1O)[C@@H]1O[C@H](CO)[C@@H](O)[C@H](O)[C@H]1OC2=O [bergenin]	0		4.5	0	0	108	79.5	98.8	88.8	96.1						80.5	106	80.2	83.1	80.5	106	103	103	90.5	101	96.7	97.8	95.2	97.7	97.5	> 10	> 10	> 10	> 10
O=C(CCBr)N1CCN(C(=O)CCBr)CC1 [pipobroman]	0		0		0	90.2	112	101	83.7	102						115	115	97.3	114	99						97.8	104	99.7	97.7	94	> 10	> 10		> 10
CCN1CCN(Cc2ccc(Nc3ncc(F)c(-c4cc(F)c5nc(C)n(C(C)C)c5c4)n3)nc2)CC1 [abemaciclib]	12.5	8.1	4.2	6.1	7.6	101	94.8	84.1	47.1	0.9	106	108	89.4	63	74.7	109	97.2	90.7	78.8	67.8	101	100	95.3	77.9	38	107	107	108	87.6	0.1	0.741		1.35	2.16
COc1ccc(Cl)c(Nc2nc3ccccc3nc2NS(=O)(=O)c2cccc(NC(=O)C(C)(C)N)c2)c1 [pilaralisib]	3.8	3.5	2.4	0.6	1.1	96.9	97.5	96.9	86.6	57.9	93.9	86	96.8	88	60.2	91.3	96.4	109	93.9	68.3	97	98.7	93.8	99.4	81.2	97.9	94.4	98.9	94.1	81.4			> 10	> 10
CCN(CC)CCOC(=O)C(Cc1cccc2ccccc12)CC1CCCO1 (mixture of isomers) [naftidrofuryl]		0		0.2																														
CS(=O)(=O)c1ccc(Oc2cc(F)cc(C#N)c2)c2c1[C@H](O)C(F)(F)C2 [PT-2385]	0		1.7	0	0	103	107	97.4	97.2	104						102	94.9	88.9	86.3	95.2	101	99.6	100	96.9	105	103	97.3	98.7	100	99.4	> 10	> 10	> 10	> 10
